Assay results taken from US20020013478A1, “Calanolide analogues and methods of their use” (Sarawak Medichem Pharmaceuticals,Inc., priority 1994, published 2002).
Values after ≈ are worked out from the molar mass of the structure shown. Like-named read-outs stand apart in the source and are kept apart here.

Assays:
[1] = tested on: human foreskin fibroblast cells; experiment: Toxicity run with the VZV assay, human foreskin fibroblast cells; assay type: cell-based; conditions: Table II
Method in brief: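 Human foreskin fibroblasts exposed to drug at 37 °C in CO2, either 72 h followed by Coulter Counter counts (triplicate counts, three replicate wells), or seven days followed by dye staining for 1 h and optical density at 550 nm.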

[2] = tested on: human foreskin fibroblast cells; experiment: Cell viability in the CMV plaque reduction assay (MTC); assay type: cell-based
Description: Five calanolide analogues, prepared as described above, were further evaluated for their anti-HCMV activity in plaque reduction assay against various laboratory and clinical isolates (Towne, AD 169, E. Mann, Coffinan, and C9208).

[3] = tested on: HBV; experiment: HBV replication in cultures of 2.2.15 cells, extracellular HBV virion DNA (primary assay); conditions: for EC50: read-out: HBV EC50
[4] = tested on: VZV; experiment: VZV plaque reduction assay in human foreskin fibroblast cells; assay type: cell-based, varicella zoster virus; conditions: Table II
Method in brief: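 VZV at 20-30 plaques/well adsorbed 1 h onto HFF monolayers, then 0.5% agarose overlay holding drug at final 100 down to 0.03 μg/mL (1:5 steps), duplicates. Incubation 10 days, extra MEM/agarose overlay on days 3 and 6; neutral red staining, plaques counted.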

[5] = tested on: Raji or Daudi cells; experiment: Toxicity run with the EBV assay; assay type: cell-based, human; conditions: Table II
Description: IC50 (50% inhibitory concentration) is the concentration required to inhibit cell proliferation by 50%

[6] = tested on: HIV-1; experiment: microbe, parasite or virus in culture; conditions: Human immunodeficiency virus 1, CEM-SS

What does the source list for `CCCc1cc(=O)oc2c3c(c4c(c12)OC(C)(C)C=C4)OC(C)C(C)C3=O` (racemic) [(±)-7a]?
VZV IC50 [1]: 33.3 µg/mL; MTC (minimum drug concentration that reduced cell viability by 25%) [2]: 10 µM; EC50 ([3]; Table II): 44 µM; VZV EC50 [4]: 13.7 µg/mL; EBV IC50 [5]: >50 µg/mL

Which results are given for `CCCc1cc(=O)oc2c3c(c4c(c12)OC(C)(C)C=C4)O[C@H](C)[C@@H](C)C3=O` [(+)-7, 10(R),11(R)-trans-Dihydro6,6,10,11-tetramethyl-4-propyl-2H,6H,12H-benzo [1,2-b:3,4-b′:5,6-b″]tripyran-2,12-dione]?
IC50 ([1]; Homo sapiens, Fibroblast): > 100 µg/mL; MTC (minimum drug concentration that reduced cell viability by 25%) ([2]; isolate AD169): 100 µM; MTC (minimum drug concentration that reduced cell viability by 25%) ([2]; isolate C9208): >100 µM; MTC (minimum drug concentration that reduced cell viability by 25%) ([2]; isolate Coffman): >100 µM; MTC (minimum drug concentration that reduced cell viability by 25%) ([2]; isolate E. Mann): 100 µM; MTC (minimum drug concentration that reduced cell viability by 25%) ([2]; isolate Towne): >100 µM; EC50 [6]: 0.68 µM; EC50 ([3]; Hepatitis B virus): 7.2 µM; potency against HBV ([3]; text summary of Table II): potent; EC50 ([4]; Human alphaherpesvirus 3, Fibroblast): 55.9 µg/mL (≈ 152 µM); IC50 ([5]; Homo sapiens): > 50 µg/mL
